Experimental data reported in US20080113344A1, “Methods and Compositions for the Response Prediction of Malignant Neoplasia to Treatment” (priority 2003, published 2008).

Tested on: breast cancer
Assay: Retrospective clinical study of adjuvant tamoxifen treatment of breast cancer
Format: in vivo, human
Details: overexpression of PPARBP
From the text: In particular, elevated levels of the PPARBP gene and protein and the integrity of the telomeric hormone receptor region of the 17q21 ARCHEON, bearing THRA, NR1D1 and RARA, or its related regions on the other ARCHEONs are of importance for these therapeutic regimens. […] Overexpression of PPARBP enables activity of estrogen and progesteron receptors irrespective of a bound ligand. Therefore, the deregulation of the PPARBP results in the activity of these hormone receptors in the absence of the hormones and even in the presence of anti-hormones and thereby circumvents the anti tumor effect of anti hormonal strategies resulting in resistance of PPARBP overexpressing cells. In addition overexpression of hormone receptors other than estrogen receptor in tumor cells affects activity of estrogen or the respective anti-hormones by competition for dimerization partners, such as RXR, or transcriptional activator or repressor genes, such as CBP or NCOR. With regard to tamoxifen treatment this clearly diminishes the effect of the anti-hormone, as the pool of the transcriptional cofactors is reduced for the classical mode of action of tamoxifen within the nucleus.

Compound: CC/C(=C(\c1ccccc1)c1ccc(OCCN(C)C)cc1)c1ccccc1 [tamoxifen]
- overall survival of patients receiving adjuvant tamoxifen: has impact on the overall survival
